Test results: patent US11613556B2, “Oxysterols and methods of use thereof” (Sage Therapeutics, Inc., priority 2016, dated 2023)
Where two headings read alike, the source gives them in different places.

How the values were obtained:
Type in all cases: cell-based
[1] = target: GluN1/GluN2A glutamate receptors (human GRIN1/GRIN2A) expressed in HEK293 cells (Homo sapiens (Human), UniProt Q05586+Q12879); assay: Whole-cell patch clamp of mammalian cells (Ionworks Barracuda), positive allosteric modulation, GluN1/GluN2A; settings: for Emax: read-out: GluN2A PCA EMax (%)
GluN1/GluN2A glutamate receptors (human GRIN1/GRIN2A) expressed in HEK293 cells, sequence (Q12879 whole entry, looked up, other chains not shown): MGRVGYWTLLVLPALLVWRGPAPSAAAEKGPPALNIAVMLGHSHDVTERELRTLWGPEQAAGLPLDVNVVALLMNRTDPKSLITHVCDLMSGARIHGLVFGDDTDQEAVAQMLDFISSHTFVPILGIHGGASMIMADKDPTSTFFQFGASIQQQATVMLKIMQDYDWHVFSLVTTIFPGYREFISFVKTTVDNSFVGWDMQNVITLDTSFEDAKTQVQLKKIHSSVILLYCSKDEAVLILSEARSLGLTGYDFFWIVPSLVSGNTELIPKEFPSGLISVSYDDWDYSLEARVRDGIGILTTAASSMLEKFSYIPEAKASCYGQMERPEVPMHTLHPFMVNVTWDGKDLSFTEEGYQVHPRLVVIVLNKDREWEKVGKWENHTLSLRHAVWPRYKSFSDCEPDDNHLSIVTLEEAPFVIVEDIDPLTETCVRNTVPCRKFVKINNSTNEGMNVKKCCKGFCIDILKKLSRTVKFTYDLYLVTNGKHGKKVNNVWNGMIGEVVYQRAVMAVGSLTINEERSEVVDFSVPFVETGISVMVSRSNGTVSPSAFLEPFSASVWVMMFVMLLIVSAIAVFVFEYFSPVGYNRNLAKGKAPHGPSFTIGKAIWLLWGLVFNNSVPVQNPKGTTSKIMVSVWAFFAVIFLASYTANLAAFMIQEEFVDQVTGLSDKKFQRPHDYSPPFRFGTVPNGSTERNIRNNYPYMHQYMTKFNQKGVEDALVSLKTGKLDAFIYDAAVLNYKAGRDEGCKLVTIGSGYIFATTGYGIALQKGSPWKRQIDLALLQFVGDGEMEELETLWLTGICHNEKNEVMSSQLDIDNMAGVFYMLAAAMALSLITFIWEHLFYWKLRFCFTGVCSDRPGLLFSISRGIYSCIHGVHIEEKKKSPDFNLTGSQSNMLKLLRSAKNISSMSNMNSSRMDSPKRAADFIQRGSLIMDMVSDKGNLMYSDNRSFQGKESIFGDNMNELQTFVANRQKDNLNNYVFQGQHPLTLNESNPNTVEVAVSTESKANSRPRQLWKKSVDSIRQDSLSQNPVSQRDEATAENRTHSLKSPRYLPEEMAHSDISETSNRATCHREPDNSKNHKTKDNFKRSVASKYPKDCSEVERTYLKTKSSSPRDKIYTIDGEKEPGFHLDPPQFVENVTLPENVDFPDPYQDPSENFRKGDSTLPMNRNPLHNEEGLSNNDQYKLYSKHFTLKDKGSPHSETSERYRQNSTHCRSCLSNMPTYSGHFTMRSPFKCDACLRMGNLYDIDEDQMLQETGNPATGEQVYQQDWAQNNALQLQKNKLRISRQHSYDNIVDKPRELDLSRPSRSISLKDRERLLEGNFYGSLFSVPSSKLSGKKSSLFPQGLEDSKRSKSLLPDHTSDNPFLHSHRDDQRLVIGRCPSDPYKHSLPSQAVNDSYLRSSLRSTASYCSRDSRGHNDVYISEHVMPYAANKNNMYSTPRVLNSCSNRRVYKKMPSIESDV
Summary of the method: (§1)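 Ionworks Barracuda perforated-patch recordings, holding −70 mV, −40 mV during application; CsCl/CsF intracellular pH 7.2, HB-PS extracellular pH 7.4 with 5 mM CaCl2. 5 min pre-application of test article alone, then co-application with EC20 L-glutamate plus 30 μM glycine; potentiation read as peak current amplitude.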

[2] = target: GluN2B glutamate receptors expressed in mammalian cells (Homo sapiens (Human), UniProt Q05586+Q13224); assay: Whole-cell patch clamp of mammalian cells (Ionworks Barracuda), positive allosteric modulation, GluN2B; settings: for Emax: read-out: GluN2B PCA EMax (%)
GluN2B glutamate receptors expressed in mammalian cells, sequence (Q13224 27-1484, other chains not shown): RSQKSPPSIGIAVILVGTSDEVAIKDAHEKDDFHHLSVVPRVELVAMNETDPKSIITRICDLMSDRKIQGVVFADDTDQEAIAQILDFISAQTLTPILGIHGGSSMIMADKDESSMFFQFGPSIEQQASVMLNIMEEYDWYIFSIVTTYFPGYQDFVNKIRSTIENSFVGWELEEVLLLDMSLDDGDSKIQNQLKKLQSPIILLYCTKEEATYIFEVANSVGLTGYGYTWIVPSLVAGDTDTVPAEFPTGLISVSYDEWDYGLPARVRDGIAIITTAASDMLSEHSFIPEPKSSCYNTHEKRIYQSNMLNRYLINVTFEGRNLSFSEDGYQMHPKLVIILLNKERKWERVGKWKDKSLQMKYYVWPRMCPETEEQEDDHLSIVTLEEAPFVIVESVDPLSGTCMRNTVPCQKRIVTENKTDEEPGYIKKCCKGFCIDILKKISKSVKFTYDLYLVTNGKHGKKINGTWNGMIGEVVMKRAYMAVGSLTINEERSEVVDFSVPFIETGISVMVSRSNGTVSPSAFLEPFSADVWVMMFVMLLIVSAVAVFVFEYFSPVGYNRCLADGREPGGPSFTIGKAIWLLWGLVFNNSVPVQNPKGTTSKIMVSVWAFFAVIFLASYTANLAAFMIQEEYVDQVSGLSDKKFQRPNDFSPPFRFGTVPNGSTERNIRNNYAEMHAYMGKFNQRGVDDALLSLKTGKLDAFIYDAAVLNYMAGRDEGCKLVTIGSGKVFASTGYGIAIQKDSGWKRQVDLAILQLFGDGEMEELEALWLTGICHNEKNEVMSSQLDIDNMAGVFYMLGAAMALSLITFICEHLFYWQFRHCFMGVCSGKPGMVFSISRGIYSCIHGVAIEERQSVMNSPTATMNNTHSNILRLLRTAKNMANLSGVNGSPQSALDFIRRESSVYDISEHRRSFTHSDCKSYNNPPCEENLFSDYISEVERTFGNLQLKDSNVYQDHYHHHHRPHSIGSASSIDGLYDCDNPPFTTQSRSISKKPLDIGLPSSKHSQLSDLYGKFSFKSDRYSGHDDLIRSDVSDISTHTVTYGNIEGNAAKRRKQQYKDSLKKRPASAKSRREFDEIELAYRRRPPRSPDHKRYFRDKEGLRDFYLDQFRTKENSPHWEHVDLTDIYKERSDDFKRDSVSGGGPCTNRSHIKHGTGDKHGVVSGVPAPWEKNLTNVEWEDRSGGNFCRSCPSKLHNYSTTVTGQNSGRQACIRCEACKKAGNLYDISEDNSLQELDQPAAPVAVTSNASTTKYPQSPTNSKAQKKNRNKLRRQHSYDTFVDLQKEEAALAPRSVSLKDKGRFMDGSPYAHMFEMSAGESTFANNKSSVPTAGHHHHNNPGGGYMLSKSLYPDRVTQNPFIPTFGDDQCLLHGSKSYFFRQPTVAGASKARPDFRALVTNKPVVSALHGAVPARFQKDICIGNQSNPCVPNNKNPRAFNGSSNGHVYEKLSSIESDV
Summary of the method: as §1

[3] = target: glutamate-activated channels of the GRIN1/2A subtype stably transfected in HEK 293 cells (Homo sapiens (Human), UniProt Q05586+Q12879); assay: Automated patch-clamp system (QPatch HTX), percent potentiation at 1 μM; settings: HEK293, 1 μM test compound, 300 μM NMDA with 8 μM glycine, HEK 293 GRIN1/2A, read-out: GluN2A PCA % potentiation at 1 μM
glutamate-activated channels of the GRIN1/2A subtype stably transfected in HEK 293 cells, sequence (Q12879 whole entry, looked up, other chains not shown): as the sequence (Q12879 whole entry, looked up, other chains not shown) above
Summary of the method: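 Tetracycline-induced HEK 293 cells stably expressing human GRIN1/2A were whole-cell recorded on QPatch HTX in Mg-free bath solution at pH 7.4. Compound at 1.0 μM (0.1% DMSO) was co-applied with submaximal 300 μM NMDA plus 8 μM glycine, and percent potentiation was recorded.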

[4] = peak current amplitude, co-application with EC20 L-glutamate and 30 μM glycine, HEK293
[5] = peak current amplitude, co-application with EC20 L-glutamate and 30 μM glycine, read-out: GluN2B PCA EC50
[6] = peak current amplitude, co-application with EC20 L-glutamate and 30 μM glycine

SMILES	EC50 [1] [nM]	Emax [1, 4] [%]	EC50 [2, 5] [nM]	Emax [2, 6] [%]	activation at 1 µM [3] [%]	EC50 ([1]; peak current amplitude, co-application with EC20 L-glutamate and 30 μM glycine, HEK293, read-out: GluN2A PCA EC50) [nM]	EC50 [2] [nM]	Emax [2] [%]
CCC[C@H](O)[C@@H](C)[C@H]1CC[C@H]2[C@@H]3CC[C@H]4C[C@](O)(CC)CC[C@]4(C)[C@H]3CC[C@]12C [Compound 38, (3S,5S,8R,9S,10S,13S,14S,17R)-3-ethyl-17-((2S,3S)-3-hydroxyhexan-2-yl)-10,13-dimethylhexadecahydro-1H-cyclopenta[a]phenanthren-3-ol]	> 1000	< 100	> 1000	< 100	-40 to -10	–	–	–
CC[C@]1(O)CC[C@@]2(C)[C@@H](CC[C@@H]3[C@@H]2CC[C@]2(C)[C@@H]([C@H](C)[C@@H](O)Cc4ccccc4)CC[C@@H]32)C1 [Compound 32, (3S,5S,8R,9S,10S,13S,14S,17R)-3-ethyl-17-((2S,3S)-3-hydroxy-4-phenylbutan-2-yl)-10,13-dimethylhexadecahydro-1H-cyclopenta[a]phenanthren-3-ol]	> 1000	< 100	> 1000	< 100	-10 to 10	–	–	–
CC[C@]1(O)CC[C@@]2(C)[C@H](CC[C@@H]3[C@@H]2CC[C@]2(C)[C@@H]([C@H](C)[C@H](O)CC4CCCC4)CC[C@@H]32)C1 [Compound 67, (3S,5R,8R,9S,10S,13S,14S,17R)-17-((2S,3R)-4-cyclopentyl-3-hydroxybutan-2-yl)-3-ethyl-10,13-dimethylhexadecahydro-1H-cyclopenta[a]phenanthren-3-ol]	> 1000	< 100	> 1000	< 100	-10 to 10	–	–	–
CC[C@]1(O)CC[C@@]2(C)[C@@H](CC[C@@H]3[C@@H]2CC[C@]2(C)[C@@H]([C@H](C)[C@H](O)CC4CCC(C)(C)CC4)CC[C@@H]32)C1 [Compound 20, (3S,5S,8R,9S,10S,13S,14S,17R)-17-((2S,3R)-4-(4,4-dimethylcyclohexyl)-3-hydroxybutan-2-yl)-3-ethyl-10,13-dimethylhexadecahydro-1H-cyclopenta[a]phenanthren-3-ol]	–	< 100	–	–	-40 to -10	> 1000	> 1000	< 100
CC[C@]1(O)CC[C@@]2(C)C(=CC[C@H]3[C@@H]4CC[C@H]([C@H](C)[C@@H](O)CC5CCCC5)[C@@]4(C)CC[C@@H]32)C1 [Compound 100, (3S,8S,9S,10R,13S,14S,17R)-17-((2S,3S)-4-cyclopentyl-3-hydroxybutan-2-yl)-3-ethyl-10,13-dimethyl-2,3,4,7,8,9,10,11,12,13,14,15,16,17-tetradecahydro-1H-cyclopenta[a]phenanthren-3-ol]	> 1000	< 100	> 1000	< 100	-40 to -10	–	–	–
CC[C@]1(O)CC[C@@]2(C)C(=CC[C@H]3[C@@H]4CC[C@H]([C@H](C)[C@H](O)CCC5CC5)[C@@]4(C)CC[C@@H]32)C1 [Compound 6, (3S,8S,9S,10R,13S,14S,17R)-17-((2S,3R)-5-cyclopropyl-3-hydroxypentan-2-yl)-3-ethyl-10,13-dimethyl-2,3,4,7,8,9,10,11,12,13,14,15,16,17-tetradecahydro-1H-cyclopenta[a]phenanthren-3-ol]	> 1000	< 100	> 1000	< 100	-10 to 10	–	–	–
